{
  "source": "patent US20080108568A1",
  "about": "“COMPOUNDS FOR IMPROVING LEARNING AND MEMORY” (TGEN, priority 2006, published 2008)",
  "key": {"[1]": {"tested_on": "aged (18-months old) rats", "test": "tolerability observation during daily sub-cutaneous dosing", "assay_type": "in vivo, rat", "details": "10 mg/kg/day s.c., after 7 days of drug delivery; animals switched to the low dose", "description": "(§1) This experiment included a decreased pre-loading phase, a more difficult version of the working memory trial (where 7 out of 8 arms were platformed), and an elongated version of the Morris maze (7 days plus a “probe” trial). Fasudil was delivered via daily sub-cutaneous injections to aged (18-months old) rats at doses of 3 mg/kg/day (n=8) or 10 mg/kg/day (n=8). Controls included both aged and young (4-months old) rats injected daily with vehicle (normal saline). The low dose for Fasudil was based upon the evidence in Example 3 showing efficacy and the high dose was based on that reported in the literature as a commonly used low therapeutic dose. There was a one day loading period for this experiment."}, "[2]": {"tested_on": "aged (18-months old) rats", "test": "water escape radial arm maze, more difficult version of the working memory trial (7 out of 8 arms platformed)", "assay_type": "in vivo, rat", "description": "as §1"}, "[3]": {"tested_on": "aged rats", "test": "Morris water maze (reference memory)", "assay_type": "in vivo, rat", "description": "The rats were also tested using the Morris water maze. The Morris water maze consists of a circular water bath with a single platform. The bath is divided into 4 quadrants and various annuli. A rat was placed in the water bath and the time and distance that the rat required to reach the platform was measured. The solving strategy used by the rat was also noted. The movement of the rat was tracked using a digital tracking system. Each rat underwent 4 trials per day, with entry into the maze varied by quadrant for each trial. The Morris water maze included 5 days of testing, with the first 4 days involving testing and day 5 involving a probe trial.\n(§2) Aged animals were pre-loaded for 14 days at 10mg/kg/day (FAS LOW DOSE+PRIMING) or at 3 mg/kg/day (FAS LOW DOSE). After 14 days all animals were administered 3 mg/kg/day. Vehicle was normal saline (0.9%). The rats were subjected to the Radial Arm Maze and the Morris Water Maze described above.\nFasudil was also delivered via daily sub-cutaneous injections to aged (18-months old) rats at doses of 3 mg/kg/day (n=8) or 30 mg/kg/day (n=8). Controls included both aged and young (4-months old) rats injected daily with vehicle (normal saline). The low dose for Fasudil was based upon the previous study showing efficacy with 0.750 mg/kg/day hydroxyfasudil and the high dose was based on that reported in the literature as a commonly used therapeutic dose."}, "[4]": {"tested_on": "aged rats (18 months old)", "test": "water escape radial arm maze test (4 of 8 arms platformed)", "assay_type": "in vivo, rat", "description": "Hydroxyfasudil was tested in vivo by administering to aged rats (18 months old) two doses of 0.75 mg/kg and 0.375 mg/kg, delivered subcutaneously each day for a period of 4-5 days before testing. During testing, hydroxyfasudil was administered in the morning of each testing day. Two control groups were used, with one group being untreated and the other group treated with the vehicle (saline). Both control groups include 9 members, with an age of 4 months.\nThe rats were then tested using the water escape radial arm maze test. The radial arm maze is a swim-based test without the need for food deprivation. The maze consists of 8 radial arms, with 4 of the arms having a submerged platform. […] The rat was given 180 seconds to locate a platform. If the rat located a platform, the rat was allowed 15 seconds on the platform, and was then removed. When a rat found a platform, that platform was removed prior to beginning the next trial. Each rat was subjected to 4 trials per day, with 1 trial per platform and 30 seconds between trials. Each rat was tested over a period of 12 days, with the first day consisting of training, days 2-7 considered “initial,” and days 8-12 considered “latter.”\nAdditional efficacy testing was performed using twenty-seven 18-month old male rats were utilized and divided randomly into three treatment groups: saline vehicle (“Aged Vehicle”), hydroxyfasudil in saline at a dose of 0.1875 mg per day (“Aged Low Dose”), and hydroxyfasudil at a dose of 0.3750 mg per day (“Aged High Dose”). Daily injections of the assigned substrate began four days prior to behavioral testing and continued throughout testing, with injections given approximately one hour before daily testing ensued. Animals were tested 4 trials per day for 12 consecutive days. Following the water radial arm maze, spatial reference memory was assessed using the Morris water maze. This testing consisted of 4 trials per day for 4 days with an additional probe trial on the final day.\nUsing the protocol described above for hydroxyfasudil, rats were treated with from 1 mg/kg to 2 mg/kg of fenretinide. The rats were subjected to the Radial Arm Maze and the Morris Water Maze described above.\nas §2"}, "[5]": {"tested_on": "“memory molecule” transcripts in the hippocampus", "test": "expression profile of the entire hippocampus of hydroxyfasudil treated animals", "assay_type": "in vivo", "details": "FIG. 6", "from_the_text": "The tissue source is the entire hippocampus.\nAfter testing, the rats were terminated and the brain dissected."}, "[6]": {"details": "rats, 1 mg/kg to 2 mg/kg, FIG. 7"}},
  "note": "Entries after “also recorded” stand apart in the source; their conditions may differ.",
  "data": [
    {"molecule": "O=S(=O)(c1cccc2cnccc12)N1CCCNCC1", "note": "[Fasudil, fasudil]", "values": [
      {"measurement": "trauma in dosed animals", "setting": "[1]", "value": "began to show similar trauma as in the previous study"},
      {"measurement": "memory performance", "setting": "[2]; FIG. 12 legend", "value": "improves memory performance"},
      {"measurement": "working memory performance", "setting": "[2]; aged rats, 3 or 10 mg/kg/day s.c. (10 mg/kg/day switched to low dose after 7 days), especially trials 6 and 7, FIG. 12", "value": "significant improvement in working memory performance"},
      {"measurement": "efficacy of the low dose (evidence in Example 3)", "setting": "[3]; 3 mg/kg/day s.c.", "value": "efficacy"},
      {"measurement": "reference memory performance (inches swam to locate the hidden platform), by day", "setting": "[3]; 14 days pre-loading at 10 or 3 mg/kg/day, then 3 mg/kg/day, collapsed across trials each day, FIG. 11A", "value": "improves reference memory performance"},
      {"measurement": "reference memory performance (inches swam to locate the hidden platform), by trial", "setting": "[3]; 14 days pre-loading at 10 or 3 mg/kg/day, then 3 mg/kg/day, collapsed by trial for all four days, FIG. 11B", "value": "improves reference memory performance"}
    ]},
    {"molecule": "CC1=C(/C=C/C(C)=C/C=C/C(C)=C/C(=O)Nc2ccc(O)cc2)C(C)(C)CCC1", "note": "[fenretinide]", "values": [
      {"measurement": "working memory", "setting": "[4]; 6 rats per group, FIG. 7 legend", "value": "improving working memory"},
      {"measurement": "memory, greater doses versus smaller doses", "setting": "[4]; [6]", "value": "improved memory more than smaller doses"},
      {"measurement": "number of incorrect errors made by the rats, versus the control", "setting": "[4]; [6]", "value": "lowered the number of incorrect errors"}
    ]},
    {"molecule": "O=c1[nH]ccc2c(S(=O)(=O)N3CCCNCC3)cccc12", "note": "[hydroxyfasudil]", "values": [
      {"measurement": "“memory molecule” transcripts in the hippocampus", "setting": "[5]", "value": "alteration of “memory molecule” transcripts"},
      {"measurement": "memory (working memory)", "setting": "[4]; 18-month old male rats, 0.1875 mg per day and 0.3750 mg per day, daily injections from four days before testing, FIG. 16", "value": "improved memory; also recorded: improves working memory"},
      {"measurement": "working memory", "setting": "[4]; FIG. 5 legend", "value": "improves working memory"},
      {"measurement": "memory", "setting": "[4]; aged rats, 0.75 mg/kg and 0.375 mg/kg s.c. daily, FIGS. 3-5", "value": "improved memory"},
      {"measurement": "learning scores (orthogonal measures of working memory)", "setting": "[4]; aged rats, 0.75 mg/kg and 0.375 mg/kg subcutaneously each day, FIGS. 3-4", "value": "improved learning scores"},
      {"measurement": "improvements of learning, higher doses versus smaller doses", "setting": "[4]; aged rats, 0.75 mg/kg vs 0.375 mg/kg s.c. daily, FIGS. 3-4", "value": "greater improvements of learning"},
      {"measurement": "improvements of memory, higher doses versus smaller doses", "setting": "[4]; aged rats, 0.75 mg/kg vs 0.375 mg/kg s.c. daily, FIGS. 3-5", "value": "greater improvements of memory"},
      {"measurement": "performance of aging rats compared with young rats", "setting": "[4]; aging rats receiving the compound", "value": "perform at a level comparable to young rats"}
    ]}
  ]
}
